Test results taken from the supplement of paper PMC10883282.
± gives the standard deviation of the averaged measurements.

How the values were obtained:
Assay in all cases: relative viability vs DMSO control (72 h) (fraction); higher = more viable cells
SYO-1 = test system: SYO-1
Summary of the method: (§1)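 Relative viability is percent growth read by ATPLite and averaged over up to triplicate wells. Sarcoma cells were seeded in 384-well plates to reach 80–90% confluence and given 2.5 µl of serially diluted compound after 24 h, from source plates of 10 mM to 0.0002 mM. Incubation lasted 72 h at 37 °C, 5% CO2, with 0.1% DMSO vehicle and a 5 µM positive control, and the data were rescaled so 1 equals full and 0 equals none.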

RD = test system: RD
Summary of the method: as §1

SW684 = test system: SW684
Summary of the method: as §1

SW872 = test system: SW872
Summary of the method: as §1

HS729 = test system: HS729
Summary of the method: as §1

SW1353 = test system: SW1353
Summary of the method: as §1

KHOS-NP = test system: KHOS-NP
Summary of the method: as §1

G401 = test system: G401
Summary of the method: as §1

HT1080 = test system: HT1080
Summary of the method: as §1

RD-ES = test system: RD-ES
Summary of the method: as §1

SK-LMS-1 = test system: SK-LMS-1
Summary of the method: as §1

KHOS-240S = test system: KHOS-240S
Summary of the method: as §1

COc1cc(N2CCC(N3CCN(C)CC3)CC2)ccc1Nc1ncc(Cl)c(Nc2ccccc2P(C)(C)=O)n1 [Brigatinib]
Conditions | relative viability
G401, 0.00017 µM | 0.983 ± 0.012
G401, 0.00051 µM | 0.972 ± 0.02
G401, 0.00152 µM | 0.9624 ± 0.0079
G401, 0.00457 µM | 0.9721 ± 0.0044
G401, 0.01372 µM | 0.941 ± 0.037
G401, 0.04115 µM | 0.909 ± 0.059
G401, 0.1235 µM | 0.923 ± 0.062
G401, 0.3704 µM | 0.764 ± 0.01
G401, 1.111 µM | 0.626 ± 0.041
G401, 3.333 µM | 0.261 ± 0.019
G401, 10 µM | 0.0657 ± 0.0081
HS729, 0.00017 µM | 0.91 ± 0.03
HS729, 0.00051 µM | 0.925 ± 0.039
HS729, 0.00152 µM | 0.933 ± 0.065
HS729, 0.00457 µM | 0.909 ± 0.019
HS729, 0.01372 µM | 0.858 ± 0.033
HS729, 0.04115 µM | 0.771 ± 0.076
HS729, 0.1235 µM | 0.685 ± 0.083
HS729, 0.3704 µM | 0.595 ± 0.061
HS729, 1.111 µM | 0.417 ± 0.011
HS729, 3.333 µM | 0.199 ± 0.0042
HS729, 10 µM | 0.0341 ± 0.0021
HT1080, 0.00017 µM | 1.01 ± 0.024
HT1080, 0.00051 µM | 1.03 ± 0.035
HT1080, 0.00152 µM | 1.02 ± 0.056
HT1080, 0.00457 µM | 1.01 ± 0.091
HT1080, 0.01372 µM | 1 ± 0.029
HT1080, 0.04115 µM | 0.984 ± 0.041
HT1080, 0.1235 µM | 1.01 ± 0.066
HT1080, 0.3704 µM | 1.03 ± 0.033
HT1080, 1.111 µM | 0.93 ± 0.022
HT1080, 3.333 µM | 0.573 ± 0.011
HT1080, 10 µM | 0.151 ± 0.0098
KHOS-240S, 0.00017 µM | 1.04 ± 0.058
KHOS-240S, 0.00051 µM | 1.04 ± 0.045
KHOS-240S, 0.00152 µM | 1.02 ± 0.071
KHOS-240S, 0.00457 µM | 1.01 ± 0.07
KHOS-240S, 0.01372 µM | 0.989 ± 0.053
KHOS-240S, 0.04115 µM | 0.978 ± 0.079
KHOS-240S, 0.1235 µM | 0.92 ± 0.066
KHOS-240S, 0.3704 µM | 0.754 ± 0.035
KHOS-240S, 1.111 µM | 0.445 ± 0.02
KHOS-240S, 3.333 µM | 0.0468 ± 0.004
KHOS-240S, 10 µM | 0.0051 ± 0.0024
KHOS-NP, 0.00017 µM | 1.04 ± 0.025
KHOS-NP, 0.00051 µM | 1.06 ± 0.029
KHOS-NP, 0.00152 µM | 1.05 ± 0.035
KHOS-NP, 0.00457 µM | 1.02 ± 0.038
KHOS-NP, 0.01372 µM | 1.03 ± 0.038
KHOS-NP, 0.04115 µM | 1.03 ± 0.026
KHOS-NP, 0.1235 µM | 0.994 ± 0.029
KHOS-NP, 0.3704 µM | 0.985 ± 0.055
KHOS-NP, 1.111 µM | 0.852 ± 0.011
KHOS-NP, 3.333 µM | 0.534 ± 0.047
KHOS-NP, 10 µM | 0.21 ± 0.0058
RD, 0.00017 µM | 1.06 ± 0.098
RD, 0.00051 µM | 1.06 ± 0.086
RD, 0.00152 µM | 1.07 ± 0.069
RD, 0.00457 µM | 1.05 ± 0.047
RD, 0.01372 µM | 1.05 ± 0.051
RD, 0.04115 µM | 0.978 ± 0.056
RD, 0.1235 µM | 0.769 ± 0.028
RD, 0.3704 µM | 0.459 ± 0.017
RD, 1.111 µM | 0.342 ± 0.012
RD, 3.333 µM | 0.168 ± 0.016
RD, 10 µM | 0.0473 ± 0.014
RD-ES, 0.00017 µM | 0.965 ± 0.041
RD-ES, 0.00051 µM | 0.968 ± 0.034
RD-ES, 0.00152 µM | 0.955 ± 0.03
RD-ES, 0.00457 µM | 0.918 ± 0.036
RD-ES, 0.01372 µM | 0.873 ± 0.029
RD-ES, 0.04115 µM | 0.839 ± 0.038
RD-ES, 0.1235 µM | 0.701 ± 0.018
RD-ES, 0.3704 µM | 0.457 ± 0.0099
RD-ES, 1.111 µM | 0.317 ± 0.0035
RD-ES, 3.333 µM | 0.165 ± 0.004
RD-ES, 10 µM | 0.0867 ± 0.0048
SK-LMS-1, 0.00017 µM | 1.04 ± 0.061
SK-LMS-1, 0.00051 µM | 1 ± 0.04
SK-LMS-1, 0.00152 µM | 1.02 ± 0.022
SK-LMS-1, 0.00457 µM | 0.986 ± 0.04
SK-LMS-1, 0.01372 µM | 0.998 ± 0.019
SK-LMS-1, 0.04115 µM | 1.02 ± 0.053
SK-LMS-1, 0.1235 µM | 1.02 ± 0.04
SK-LMS-1, 0.3704 µM | 0.924 ± 0.039
SK-LMS-1, 1.111 µM | 0.757 ± 0.033
SK-LMS-1, 3.333 µM | 0.556 ± 0.009
SK-LMS-1, 10 µM | 0.331 ± 0.0081
SW684, 0.00017 µM | 1.04 ± 0.057
SW684, 0.00051 µM | 1.05 ± 0.041
SW684, 0.00152 µM | 1.05 ± 0.011
SW684, 0.00457 µM | 0.992 ± 0.047
SW684, 0.01372 µM | 1.06 ± 0.03
SW684, 0.04115 µM | 1.06 ± 0.037
SW684, 0.1235 µM | 1.04 ± 0.011
SW684, 0.3704 µM | 1.02 ± 0.034
SW684, 1.111 µM | 0.921 ± 0.03
SW684, 3.333 µM | 0.573 ± 0.025
SW684, 10 µM | 0.2498 ± 0.0023
SW872, 0.00017 µM | 0.989 ± 0.023
SW872, 0.00051 µM | 0.969 ± 0.049
SW872, 0.00152 µM | 0.967 ± 0.053
SW872, 0.00457 µM | 0.94 ± 0.072
SW872, 0.01372 µM | 0.926 ± 0.072
SW872, 0.04115 µM | 0.885 ± 0.063
SW872, 0.1235 µM | 0.818 ± 0.068
SW872, 0.3704 µM | 0.626 ± 0.046
SW872, 1.111 µM | 0.469 ± 0.035
SW872, 3.333 µM | 0.321 ± 0.013
SW872, 10 µM | 0.288 ± 0.012
SW1353, 0.00017 µM | 0.909 ± 0.056
SW1353, 0.00051 µM | 0.922 ± 0.018
SW1353, 0.00152 µM | 0.907 ± 0.034
SW1353, 0.00457 µM | 0.903 ± 0.063
SW1353, 0.01372 µM | 0.896 ± 0.052
SW1353, 0.04115 µM | 0.851 ± 0.037
SW1353, 0.1235 µM | 0.824 ± 0.044
SW1353, 0.3704 µM | 0.647 ± 0.035
SW1353, 1.111 µM | 0.449 ± 0.008
SW1353, 3.333 µM | 0.147 ± 0.013
SW1353, 10 µM | 0.0131 ± 0.0024
SYO-1, 0.00017 µM | 0.95 ± 0.021
SYO-1, 0.00051 µM | 0.952 ± 0.018
SYO-1, 0.00152 µM | 0.922 ± 0.043
SYO-1, 0.00457 µM | 0.889 ± 0.079
SYO-1, 0.01372 µM | 0.846 ± 0.086
SYO-1, 0.04115 µM | 0.768 ± 0.058
SYO-1, 0.1235 µM | 0.706 ± 0.058
SYO-1, 0.3704 µM | 0.501 ± 0.028
SYO-1, 1.111 µM | 0.239 ± 0.012
SYO-1, 3.333 µM | 0.0457 ± 0.0037
SYO-1, 10 µM | -0.0131 ± 0.0053
